#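 Five compound concentrations were applied to cells in 96-well plates for 48 hours; endpoints were derived by simple linear interpolation of the resulting dose-response curve. GI50 marks 50% less growth. At the TGI there is no net growth.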
# Experiments:
# Test in all cases: growth of human tumour cells (NCI), 48 h
# [1] = tested on: 786-0 renal
# [2] = tested on: A498 renal
# [3] = tested on: ACHN renal
# [4] = tested on: CCRF-CEM leukemia
# [5] = tested on: COLO 205 colon
# [6] = tested on: HCC-2998 colon
# [7] = tested on: HCT-116 colon
# [8] = tested on: HCT-15 colon
# [9] = tested on: HL-60(TB) leukemia
# [10] = tested on: HS 578T breast
# [11] = tested on: HT29 colon
# [12] = tested on: K-562 leukemia
# [13] = tested on: LOX IMVI melanoma
# [14] = tested on: MDA-N
# [15] = tested on: MOLT-4 leukemia
# [16] = tested on: NCI-H23 lung
# [17] = tested on: NCI/ADR-RES ovarian
# [18] = tested on: OVCAR-5 ovarian
# [19] = tested on: PC-3 prostate
# [20] = tested on: RPMI-8226 leukemia
# [21] = tested on: RXF 393 renal
# [22] = tested on: SF-268 CNS
# [23] = tested on: SF-539 CNS
# [24] = tested on: SK-MEL-2 melanoma
# [25] = tested on: SK-MEL-28 melanoma
# [26] = tested on: SK-OV-3 ovarian
# [27] = tested on: SN12C renal
# [28] = tested on: SNB-19 CNS
# [29] = tested on: SNB-75 CNS
# [30] = tested on: SR leukemia
# [31] = tested on: U251 CNS
# [32] = tested on: UACC-257 melanoma
# [33] = tested on: UO-31 renal
# [34] = tested on: A549 NSCLC
# [35] = tested on: CAKI-1 renal
# [36] = tested on: DU-145 prostate
# [37] = tested on: EKVX NSCLC
# [38] = tested on: HOP-92 NSCLC
# [39] = tested on: IGROV1 ovarian
# [40] = tested on: KM12 colon
# [41] = tested on: M14 melanoma
# [42] = tested on: MDA-MB-231 breast
# [43] = tested on: MDA-MB-435
# [44] = tested on: NCI-H226 lung
# [45] = tested on: OVCAR-3 ovarian
# [46] = tested on: OVCAR-4 ovarian
# [47] = tested on: OVCAR-8 ovarian
# [48] = tested on: SF-295 CNS
# [49] = tested on: SK-MEL-5 melanoma
# [50] = tested on: SW-620 colon
# [51] = tested on: TK-10 renal
# [52] = tested on: BT-549 breast
# [53] = tested on: HOP-62 NSCLC
# [54] = tested on: MALME-3M melanoma
# [55] = tested on: MCF7 breast
# [56] = tested on: NCI-H460 lung
# [57] = tested on: NCI-H522 lung
# [58] = tested on: T-47D breast
# [59] = tested on: UACC-62 melanoma
structure (smiles),measurement,setting,value
CCOC(=O)C(Cl)(NC(=O)NC(Cl)(C(=O)OCC)C(F)(F)F)C(F)(F)F (configuration not stated),TGI,[1],> 100 µM
same,TGI,[2],> 100 µM
same,TGI,[3],> 100 µM
same,TGI,[4],> 100 µM
same,TGI,[5],> 100 µM
same,TGI,[6],> 100 µM
same,TGI,[7],> 100 µM
same,TGI,[8],> 100 µM
same,TGI,[9],> 100 µM
same,TGI,[10],> 100 µM
same,TGI,[11],> 100 µM
same,TGI,[12],> 100 µM
same,TGI,[13],> 100 µM
same,TGI,[14],> 100 µM
same,TGI,[15],> 100 µM
same,TGI,[16],> 100 µM
same,TGI,[17],> 100 µM
same,TGI,[18],> 100 µM
same,TGI,[19],> 100 µM
same,TGI,[20],> 100 µM
same,TGI,[21],> 100 µM
same,TGI,[22],> 100 µM
same,TGI,[23],> 100 µM
same,TGI,[24],> 100 µM
same,TGI,[25],> 100 µM
same,TGI,[26],> 100 µM
same,TGI,[27],> 100 µM
same,TGI,[28],> 100 µM
same,TGI,[29],> 100 µM
same,TGI,[30],> 100 µM
same,TGI,[31],> 100 µM
same,TGI,[32],> 100 µM
same,TGI,[33],> 100 µM
CC(=O)N1C(=O)CC2(N=C(C)CC2=O)c2ccccc21 (configuration not stated),TGI,[2],> 10 µM
same,TGI,[34],> 10 µM
same,TGI,[3],> 10 µM
same,TGI,[35],> 10 µM
same,TGI,[5],> 10 µM
same,TGI,[36],> 10 µM
same,TGI,[37],> 10 µM
same,TGI,[7],> 10 µM
same,TGI,[8],> 10 µM
same,TGI,[38],> 10 µM
same,TGI,[11],> 10 µM
same,TGI,[39],> 10 µM
same,TGI,[40],> 10 µM
same,TGI,[41],> 10 µM
same,TGI,[42],> 10 µM
same,TGI,[43],> 10 µM
same,TGI,[14],> 10 µM
same,TGI,[44],> 10 µM
same,TGI,[16],> 10 µM
same,TGI,[17],> 10 µM
same,TGI,[45],> 10 µM
same,TGI,[46],> 10 µM
same,TGI,[18],> 10 µM
same,TGI,[47],> 10 µM
same,TGI,[19],> 10 µM
same,TGI,[21],> 10 µM
same,TGI,[22],> 10 µM
same,TGI,[48],> 10 µM
same,TGI,[23],> 10 µM
same,TGI,[25],> 10 µM
same,TGI,[49],> 10 µM
same,TGI,[27],> 10 µM
same,TGI,[28],> 10 µM
same,TGI,[29],> 10 µM
same,TGI,[50],> 10 µM
same,TGI,[51],> 10 µM
same,TGI,[31],> 10 µM
same,TGI,[33],> 10 µM
COc1ccc(/C=N\NC(=O)CN2CCN(c3cc4c(cc3F)c(=O)c(C(=O)N/N=C/c3ccc(OC)c(OC)c3)cn4C3CC3)CC2)cc1OC,GI50,[1],4.83 µM
same,TGI,[1],22.6 µM
same,GI50,[2],1400 nM
same,TGI,[2],23.4 µM
same,GI50,[34],4.3 µM
same,TGI,[34],75.9 µM
same,GI50,[3],> 100 µM
same,TGI,[3],> 100 µM
same,GI50,[52],1780 nM
same,TGI,[52],3.89 µM
same,GI50,[35],9.49 µM
same,TGI,[35],91.9 µM
same,GI50,[4],3.31 µM
same,TGI,[4],> 100 µM
same,GI50,[5],3.38 µM
same,TGI,[5],14.8 µM
same,GI50,[36],3.54 µM
same,TGI,[36],12 µM
same,GI50,[37],6.06 µM
same,TGI,[37],> 100 µM
same,GI50,[6],3.52 µM
same,TGI,[6],12.7 µM
same,GI50,[7],3.15 µM
same,TGI,[7],11.4 µM
same,GI50,[8],> 100 µM
same,TGI,[8],> 100 µM
same,GI50,[9],3.36 µM
same,TGI,[9],18.2 µM
same,GI50,[53],2740 nM
same,TGI,[53],9.54 µM
same,GI50,[38],2250 nM
same,TGI,[38],6.9 µM
same,GI50,[10],2510 nM
same,TGI,[10],8.99 µM
same,GI50,[11],3.46 µM
same,TGI,[11],> 100 µM
same,GI50,[39],3.1 µM
same,TGI,[39],17.1 µM
same,GI50,[12],3.81 µM
same,TGI,[12],> 100 µM
same,GI50,[40],3.42 µM
same,TGI,[40],10.7 µM
same,GI50,[13],3.22 µM
same,TGI,[13],11.3 µM
same,GI50,[41],3.53 µM
same,TGI,[41],11.9 µM
same,GI50,[54],1810 nM
same,TGI,[54],3.62 µM
same,GI50,[55],3.21 µM
same,TGI,[55],> 100 µM
same,GI50,[42],2330 nM
same,TGI,[42],6.31 µM
same,GI50,[43],2020 nM
same,TGI,[43],3.97 µM
same,GI50,[15],3.56 µM
same,TGI,[15],> 100 µM
same,GI50,[44],4.44 µM
same,TGI,[44],24 µM
same,GI50,[16],3.1 µM
same,TGI,[16],10.8 µM
same,GI50,[56],2600 nM
same,TGI,[56],6.87 µM
same,GI50,[57],3.66 µM
same,TGI,[57],> 100 µM
same,GI50,[17],> 100 µM
same,TGI,[17],> 100 µM
same,GI50,[45],2650 nM
same,TGI,[45],7.26 µM
same,GI50,[46],3.17 µM
same,TGI,[46],11 µM
same,GI50,[18],2390 nM
same,TGI,[18],6.94 µM
same,GI50,[47],3.81 µM
same,TGI,[47],81.1 µM
same,GI50,[19],2760 nM
same,TGI,[19],9.53 µM
same,GI50,[20],2770 nM
same,TGI,[20],8.82 µM
same,GI50,[21],3.79 µM
same,TGI,[21],15.2 µM
same,GI50,[22],2530 nM
same,TGI,[22],7.12 µM
same,GI50,[48],17.9 µM
same,TGI,[48],63 µM
same,GI50,[23],2380 nM
same,TGI,[23],6.46 µM
same,GI50,[24],2720 nM
same,TGI,[24],7.28 µM
same,GI50,[25],2000 nM
same,TGI,[25],3.86 µM
same,GI50,[49],3.69 µM
same,TGI,[49],15.8 µM
same,GI50,[26],3.22 µM
same,TGI,[26],9.67 µM
same,GI50,[27],2720 nM
same,TGI,[27],8.21 µM
same,GI50,[28],3.11 µM
same,TGI,[28],12.5 µM
same,GI50,[29],1560 nM
same,TGI,[29],3.49 µM
same,GI50,[30],3.11 µM
same,TGI,[30],> 100 µM
same,GI50,[50],3.33 µM
same,TGI,[50],16.8 µM
same,GI50,[58],2550 nM
same,TGI,[58],8.78 µM
same,GI50,[51],23.6 µM
same,TGI,[51],> 100 µM
same,GI50,[31],2290 nM
same,TGI,[31],6.29 µM
same,GI50,[32],3.38 µM
same,TGI,[32],37.6 µM
same,GI50,[59],2210 nM
same,TGI,[59],4.83 µM
same,GI50,[33],> 100 µM
same,TGI,[33],> 100 µM

# From PubChem BioAssay (NCI)
